≈ marks a conversion by molar mass, not a printed value. Where a SMILES comes first, the peptide text is derived from it.
Columns and labels:
[1] = tested on: Pseudomonas aeruginosa (ATCC 15692); assay: MIC assay in liquid medium (twofold dilutions) against P. aeruginosa; type: cell-based; settings: lowest concentration in twofold dilutions with no growth; 5×10^5 CFU/ml, Müller-Hinton broth, 37°C, 18 hours, read by eye; duplicate or triplicate, min–max if variable
Protocol: (§1) Seventeen predicted and recovered peptides were de novo synthesized using solid-phase technology by CASLO Laboratory ApS (Lyngby, Denmark) and delivered as HPLC-purified (>95%) trifluoracetate (TFA) salts. The peptide salts were stored as 5.12 mM stock solutions in 0.01% (V/V) acetic acid/0.2% (m/V) BSA. Peptides were tested against Escherichia coli (ATCC 25922) and Pseudomonas aeruginosa (ATCC 15692), Staphylococcus aureus (ATCC 25923), Micrococcus luteus, Saccharomyces cerevisiae, a protozoan parasite (Trypanosoma brucei brucei), mouse (Mus musculus) red blood cells and mouse spleen tissue cultures (containing 50–60% B-cells, ∼25–30% T-cells, and 5% myeloid cells). All assays were performed in duplicate or triplicate.
(§2) Activity against the bacteria and fungus was measured by assessing the lowest peptide concentration in a series of twofold dilutions at which no growth was detected (known as the minimum inhibitory concentration, MIC). Bacterial and yeast cultures (5×10^5 colony forming units/ml) were prepared in Müller-Hinton (MH) broth and Luria-Bertani (LB) broth respectively and transferred to serial dilutions of peptides ranging from 512 or 256 µM down to 1 or 0.5 µM in 96-well polypropylene plates. After incubation at 37°C (bacteria) or 30°C (S. cerevisiae) for 18 hours, growth of the cultures was checked by eye. In addition to MIC, we determined minimum microbicidal concentrations (MMC) by inoculating samples of the MIC assays on agar plates lacking peptides and checking for overnight growth. In all cases, MIC and MMC were identical.

mouse red blood cells = assay: Hemolysis of mouse red blood cells (HC50); type: cell-based; settings: lowest concentration causing at least 50% hemolysis; mouse blood diluted 1/100 in RPMI, 37°C, 30 minutes, OD 550 nm; 100% = 1% Tween-20
Protocol: as §1
Activity against mouse red blood cells was examined by assessing the lowest peptide concentration in a series of twofold dilutions causing at least 50% hemolysis (HC50). Briefly, heparinized blood was obtained by cardiac puncture of mice euthanized via CO2. The blood was diluted 1/100 in RPMI and added to polypropylene 96-well plates containing the serial peptide dilutions to obtain total volumes of 100 µl. The plates were incubated at 37°C in a humidified atmosphere for 30 minutes and centrifuged at 1400 rpm for 2 minutes to pellet intact red blood cells allowing visual observation of hemolysis. Supernatants were subsequently transferred to 96-well flat-bottom plates to allow spectrophotometry using an ELISA reader (OD measured at 550 nm). The percentage of hemolyis for each peptide concentration was calculated as 100×(ODobs−OD0%)/(OD100%−OD0%), where ODobs is the OD measured for the peptide concentration, OD0% is the average OD in the absence of peptides (0% hemolysis), and OD100% is the average OD in the presence of 1% Tween-20 (100% hemolysis).

Micrococcus luteus = assay: MIC assay in liquid medium (twofold dilutions) against M. luteus; type: cell-based; settings: lowest concentration in twofold dilutions with no growth; 5×10^5 CFU/ml, Müller-Hinton broth, 37°C, 18 hours, read by eye; duplicate or triplicate, min–max if variable
Protocol: as §1, §2

[2] = tested on: Escherichia coli (ATCC 25922); assay: MIC assay in liquid medium (twofold dilutions) against E. coli; type: cell-based; settings: lowest concentration in twofold dilutions with no growth; 5×10^5 CFU/ml, Müller-Hinton broth, 37°C, 18 hours, read by eye; duplicate or triplicate, min–max if variable
Protocol: as §1, §2

[3] = tested on: T-lymphocytes (naive C57Black/6 splenocytes); assay: Inhibition of Concanavalin A-induced T-cell proliferation in spleen cell cultures; type: cell-based, Mus musculus; settings: lowest concentration causing at least 50% inhibition of Concanavalin A-induced T-cell proliferation; 2×10^5 splenocytes, 24 h + 18 h [3H]thymidine, 37°C; min–max if variable
Protocol: as §1
Activity against T-lymphocytes was assessed as the lowest peptide concentration in a series of twofold dilutions causing at least 50% inhibition of Concanavalin A-induced T-cell proliferation (IC50). Solutions containin 2×10^5 naive C57Black/6 splenocytes in the presence of 2.5 µg Concanavalin A were added to polypropylene 96-well plates containing the serial peptide dilutions to obtain total volumes of 100 µl. After incubation for 24 hours at 37°C in a humidified atmosphere, the cells were pulsed with [^3H]thymidine and incubated for an additional 18 hours. The amount of [^3H]thymidine incorporation was assessed by a β-counter as a measure of cell proliferation and the percentage of proliferation inhibition for each peptide concentration was calculated as 100×(1−(Tobs/T100%)), where Tobs is the [^3H]thymidine level measured for the peptide concentration, and T100% is the [^3H]thymidine level measured for Concanavalin-A-induced cell proliferation in the absence of peptide (representing 100% proliferation).

[4] = tested on: Staphylococcus aureus (ATCC 25923); assay: MIC assay in liquid medium (twofold dilutions) against S. aureus; type: cell-based; settings: lowest concentration in twofold dilutions with no growth; 5×10^5 CFU/ml, Müller-Hinton broth, 37°C, 18 hours, read by eye; duplicate or triplicate, min–max if variable
Protocol: as §1, §2

Saccharomyces cerevisiae = assay: MIC assay in liquid medium (twofold dilutions) against S. cerevisiae; type: cell-based; settings: lowest concentration in twofold dilutions with no growth; 5×10^5 CFU/ml, Luria-Bertani broth, 30°C, 18 hours, read by eye; duplicate or triplicate, min–max if variable
Protocol: as §1, §2

Compound	MIC P. aeruginosa [1] [µM]	HC50 Erythrocytes (mouse red blood cells) [µM]	MIC M. luteus (Micrococcus luteus)	MIC E. coli [2] [µM]	IC50 [3] [µM]	MIC S. aureus [4] [µM]	MIC S. cerevisiae (Saccharomyces cerevisiae) [µM]
CC[C@H](C)[C@H](NC(=O)[C@H](CC(C)C)NC(=O)[C@H](CCCCN)NC(=O)[C@H](CO)NC(=O)[C@H](C)NC(=O)CNC(=O)[C@H](CCCCN)NC(=O)[C@H](CC(C)C)NC(=O)[C@H](C)NC(=O)[C@H](CCSC)NC(=O)[C@H](CCCCN)NC(=O)[C@H](C)NC(=O)[C@H](Cc1ccccc1)NC(=O)[C@@H](NC(=O)CNC(=O)[C@H](Cc1ccccc1)NC(=O)[C@H](CC(C)C)NC(=O)[C@@H](N)CO)[C@@H](C)O)C(=O)N1CCC[C@H]1C(=O)N[C@@H](Cc1c[nH]cn1)C(=O)N[C@@H](CC(C)C)C(=O)N[C@@H](CC(C)C)C(=O)N1CCC[C@H]1C(=O)N[C@@H](CO)C(=O)N[C@@H](CCCNC(=N)N)C(=O)N[C@@H](CCC(N)=O)C(=O)N[C@@H](CCC(N)=O)C(=O)O [CPF-St4] (H-SLFGTFAKMALKGASKLIPHLLPSRQQ-OH)	4 to 8	64	0,5 µM	2 to 4	2	1	16
CC[C@H](C)[C@H](NC(=O)[C@H](CC(C)C)NC(=O)[C@H](CCCCN)NC(=O)[C@H](CO)NC(=O)[C@H](C)NC(=O)CNC(=O)[C@H](CCCCN)NC(=O)[C@H](CC(C)C)NC(=O)[C@H](C)NC(=O)[C@H](C)NC(=O)[C@H](CCCCN)NC(=O)[C@H](C)NC(=O)[C@H](CC(C)C)NC(=O)[C@H](CC(C)C)NC(=O)CNC(=O)[C@H](Cc1ccccc1)NC(=O)[C@@H](NC(=O)CN)C(C)C)C(=O)N1CCC[C@H]1C(=O)N[C@@H](Cc1c[nH]cn1)C(=O)N[C@@H](CC(C)C)C(=O)N[C@@H](CC(C)C)C(=O)N1CCC[C@H]1C(=O)N[C@@H](CO)C(=O)N[C@@H](CCCNC(=N)N)C(=O)N[C@@H](CCC(N)=O)C(=O)N[C@@H](CCC(N)=O)C(=O)O [CPF-St5] (H-GVFGLLAKAALKGASKLIPHLLPSRQQ-OH)	4 to 8	64	0,5 µM	1 (≈ 2.81 µg/mL)	8	1 (≈ 2.81 µg/mL)	16 (≈ 45 µg/mL)
CC[C@H](C)[C@H](NC(=O)[C@@H](N)Cc1ccccc1)C(=O)NCC(=O)N[C@@H](C)C(=O)N[C@@H](CC(C)C)C(=O)N[C@@H](CC(C)C)C(=O)N[C@@H](CCCNC(=N)N)C(=O)N1CCC[C@H]1C(=O)N[C@@H](C)C(=O)N[C@@H](CC(C)C)C(=O)N[C@@H](CCCCN)C(=O)N[C@@H](CC(C)C)C(=O)N[C@@H](CC(C)C)C(=O)N[C@@H](C)C(=O)NCC(=O)N[C@@H](CCCCN)C(=O)O [PFQa-St2] (H-FIGALLRPALKLLAGK-OH)	256 (≈ 430 µg/mL)	256	4 µM (≈ 6.72 µg/mL)	32 (≈ 53.8 µg/mL)	128	16 (≈ 26.9 µg/mL)	128 (≈ 215 µg/mL)
CC[C@H](C)[C@H](NC(=O)[C@H](C)NC(=O)[C@H](CCC(=O)O)NC(=O)[C@H](CC(C)C)NC(=O)CNC(=O)CNC(=O)[C@H](CCCCN)NC(=O)[C@H](C)NC(=O)[C@H](Cc1ccccc1)NC(=O)[C@H](CCCCN)NC(=O)[C@H](CCCCN)NC(=O)[C@H](CC(C)C)NC(=O)CNC(=O)CNC(=O)[C@H](CC(C)C)NC(=O)[C@@H](NC(=O)[C@@H](NC(=O)[C@H](CO)NC(=O)[C@H](Cc1c[nH]c2ccccc12)NC(=O)[C@@H](NC(=O)CN)C(C)C)[C@@H](C)O)C(C)C)C(=O)N[C@H](C(=O)N[C@@H](CC(N)=O)C(=O)N1CCC[C@H]1C(=O)N[C@@H](CCCCN)C(=O)O)C(C)C [XPF-St1] (H-GVWSTVLGGLKKFAKGGLEAIVNPK-OH)	32 (≈ 82.2 µg/mL)	128	0,5 µM	4 (≈ 10.3 µg/mL)	16	32 to 64	32 (≈ 82.2 µg/mL)
CC[C@H](C)[C@H](NC(=O)[C@H](CO)NC(=O)[C@H](CO)NC(=O)[C@H](C)NC(=O)[C@H](Cc1c[nH]c2ccccc12)NC(=O)CN)C(=O)NCC(=O)N[C@@H](CO)C(=O)N[C@H](C(=O)N[C@@H](CC(C)C)C(=O)NCC(=O)N[C@@H](CCCCN)C(=O)N[C@@H](Cc1ccccc1)C(=O)N[C@@H](C)C(=O)N[C@@H](CCCCN)C(=O)NCC(=O)NCC(=O)N[C@@H](C)C(=O)N[C@@H](CCC(N)=O)C(=O)N[C@@H](C)C(=O)N[C@@H](Cc1ccccc1)C(=O)N[C@@H](CC(C)C)C(=O)N[C@@H](CCC(N)=O)C(=O)N1CCC[C@H]1C(=O)N[C@@H](CCCCN)C(=O)O)[C@@H](C)CC [XPF-St4] (H-GWASSIGSILGKFAKGGAQAFLQPK-OH)	128 (≈ 323 µg/mL)	256	0,5 µM	32 (≈ 80.6 µg/mL)	64	>256	64 (≈ 161 µg/mL)
CC[C@H](C)[C@H](NC(=O)[C@@H]1CCCN1C(=O)[C@H](CCC(N)=O)NC(=O)[C@@H](NC(=O)[C@H](CC(C)C)NC(=O)[C@H](CCCCN)NC(=O)[C@@H]1CCCN1C(=O)CNC(=O)[C@H](CC(C)C)NC(=O)[C@H](CCC(N)=O)NC(=O)[C@H](CCSC)NC(=O)[C@H](C)NC(=O)[C@H](CCCCN)NC(=O)[C@H](CCCNC(=N)N)NC(=O)[C@H](CC(C)C)NC(=O)[C@@H](NC(=O)[C@H](CCCCN)NC(=O)CNC(=O)[C@H](Cc1ccccc1)NC(=O)[C@@H](NC(=O)[C@@H]1CCCN1C(=O)[C@H](CC(C)C)NC(=O)[C@H](Cc1c[nH]c2ccccc12)NC(=O)CN)[C@@H](C)O)[C@@H](C)CC)[C@@H](C)CC)C(=O)O [XPF-St5] (H-GWLPTFGKILRKAMQLGPKLIQPI-OH)	8 to 16	128	1 µM (≈ 2.71 µg/mL)	1 to 2	8 to 16	16 (≈ 43.3 µg/mL)	32 (≈ 86.6 µg/mL)

From publication PMC3731216, “Origin and Functional Diversification of an Amphibian Defense Peptide Arsenal” (PLoS Genetics, 2013)
